Test results from PubChem BioAssay AID489006 (Sanford-Burnham Center for Chemical Genomics, 2010).
Active and inactive are the calls of the source. No rule for the calls is given here.

tested on: Jurkat NF-kB reporter, luminescence; test: Jurkat NF-kB signaling inhibitors – cell-based, luminescence, selectivity assay for B-cell receptor NF-kB inhibitor project, dose response (AID 489006)

Question: For `O=C(CCl)N1CCN(S(=O)(=O)c2ccc3c(c2)CCC3)CC1`, which IC50 is on record?
Answer: The IC50 was 2.16 µM.

Question: With `Cc1ccc(C(=O)NNC(=O)CCCN2C(=O)/C(=C/c3ccccc3Cl)SC2=S)cc1` as the compound, how does the IC50 read?
Answer: The IC50 was 4.81 µM.

Question: Which IC50 does the source give for `Cc1nc([N+](=O)[O-])c(Sc2nc3ccc([N+](=O)[O-])cc3[nH]2)n1Cc1ccccc1` here?
Answer: Its IC50 is 7.42 µM.

Question: Which IC50 does the source give for `Cc1cc(C)c2nc(NC(=O)C3CSC4(C)CCC(=O)N34)sc2c1` (configuration not stated) here?
Answer: The IC50 was 76.5 µM (inactive).

Question: For `CC1CCN(C(=O)CCCOc2cc(=O)n(C)c3ccccc23)CC1`, which IC50 is on record?
Answer: The IC50 was > 80 µM (inactive).

Question: Which IC50 does the source give for `O=C(Nc1cccc(S(=O)(=O)Nc2ccc(Cl)cc2)c1)c1ccc(Cl)nc1` here?
Answer: Its IC50 is 25.7 µM (inactive).

Question: How did the IC50 turn out when `Cn1c(=O)cc(OCC(=O)N2CCC3(CC2)OCCO3)c2ccccc21` was run?
Answer: The IC50 was > 80 µM (inactive).

Question: Which IC50 does the source give for `COc1ccc(/C=C2\SC(=S)N(CCCC(=O)Nc3ccc(O)cc3)C2=O)cc1` here?
Answer: Its IC50 is > 80 µM (inactive).

Question: How did the IC50 turn out when `COc1cc(OC)c(/C=N/NC(N)=S)cc1Br` was run?
Answer: The IC50 was > 80 µM (inactive).

Question: `Cc1cc(OC(=O)c2ccccc2Cl)cc(=O)n1C` was tested. Which IC50 did it give?
Answer: Its IC50 is > 80 µM (inactive).

Question: `Cc1ccccc1Nc1nc(Cl)c(C=O)s1` was tested. Which IC50 did it give?
Answer: The IC50 was > 80 µM (inactive).

Question: With `CCOc1ccc(-c2nc(CSCC(=O)NCc3ccco3)c(C)o2)cc1` as the compound, how does the IC50 read?
Answer: The IC50 was 64 µM (inactive).

Question: With `C=C(C)[C@@H]1CCC2(C(=O)O)CC[C@]3(C)[C@H](CC[C@@H]4[C@@]5(C)CCC(=O)C(C)(C)[C@@H]5CC[C@]43C)[C@@H]12` (some centres not stated) as the compound, how does the IC50 read?
Answer: Its IC50 is > 80 µM (inactive).

Question: For `Cc1ccc(-n2c(-c3ccccc3)c[n+]3c2CCc2ccccc2-3)c(C)c1`, which IC50 is on record?
Answer: Its IC50 is 12.5 µM.

Question: Which IC50 does the source give for `CCNc1nc(C)c2cc(Br)c(=O)n(CC)c2n1` here?
Answer: Its IC50 is 7.89 µM.

Question: With `O=C1NC[C@H](c2ccccc2)OC(=O)[C@@H](Cc2ccc(F)cc2)C/C=C\C[C@H]1CC(=O)N(CCO)Cc1ccccc1` as the compound, how does the IC50 read?
Answer: Its IC50 is 11.8 µM.

Question: `COc1ccc(C2=NCc3nnc(C)n3-c3ccc(Cl)cc32)cc1Cl` was tested. Which IC50 did it give?
Answer: Its IC50 is 36.4 µM (inactive).

Question: `O=C(CCCN1C(=O)/C(=C/c2ccccc2Cl)SC1=S)NNC(=O)c1ccccc1` was tested. Which IC50 did it give?
Answer: Its IC50 is 5.2 µM.

Question: `CCn1c(=O)cc(SCC(=O)N2CCN(C(=O)c3ccco3)CC2)c2ccccc21` was tested. Which IC50 did it give?
Answer: The IC50 was > 80 µM (inactive).

Question: `CN(C)S(=O)(=O)c1ccc(NC(=O)N2CCN(c3ccccc3)CC2)cc1` was tested. Which IC50 did it give?
Answer: The IC50 was > 80 µM (inactive).

Question: Which IC50 does the source give for `CC1=CC(C)(C)Nc2ccc(OC(=O)c3ccco3)cc21` here?
Answer: Its IC50 is 1.4 µM.

Question: Which IC50 does the source give for `Cc1ccc(/C=C2/SC(=S)N(CCCC(=O)Nc3ccc(O)cc3)C2=O)cc1` here?
Answer: Its IC50 is 19.8 µM.

Question: For `COc1ccc(-c2ccc(OC)c([C@H]3[C@H]4C=CC[C@@H](C)[C@@H]4C(=O)N3Cc3ccccc3)c2)cc1`, which IC50 is on record?
Answer: The IC50 was 35.7 µM (inactive).

Question: How did the IC50 turn out when `Cc1ccc(S(=O)(=O)CC2CSc3nc4ccccc4n32)cc1` (configuration not stated) was run?
Answer: The IC50 was > 80 µM (inactive).

Question: With `C=CCn1c(O)c(C(C)=NC(C)c2ccccc2)c(=O)[nH]c1=O` (configuration not stated) as the compound, how does the IC50 read?
Answer: The IC50 was > 80 µM (inactive).

Question: Which IC50 does the source give for `COc1ccc(-n2nnnc2S(=O)(=O)CC(=O)N2CCCCC2)cc1` here?
Answer: The IC50 was 2.25 µM.

Question: For `Cc1ccc(/C=C2\SC(=S)N(CCCC(=O)Nc3ccccn3)C2=O)cc1`, which IC50 is on record?
Answer: The IC50 was 0.76 µM.

Question: For `CCC(=O)N1c2ccccc2C(N(C(C)=O)c2ccccc2)CC1C` (configuration not stated), which IC50 is on record?
Answer: The IC50 was > 80 µM (inactive).

Question: `CCN(C(=O)CN1C(=O)NC(c2ccccc2)(c2ccc(C)c(C)c2)C1=O)C1CCCCC1` (configuration not stated) was tested. Which IC50 did it give?
Answer: The IC50 was 38.9 µM (inactive).

Question: For `C/C=C(/C)C(=O)OC1Cc2c(ccc3ccc(=O)oc23)OC1(C)C` (configuration not stated), which IC50 is on record?
Answer: Its IC50 is > 80 µM (inactive).

Question: For `COCCNC(=O)CSCc1nc(-c2ccc(SC)cc2)oc1C`, which IC50 is on record?
Answer: Its IC50 is > 80 µM (inactive).

Question: For `CNC(=O)CSc1nc2nn(-c3ccccc3)c(=O)c-2c2n1CCCCC2`, which IC50 is on record?
Answer: The IC50 was > 80 µM (inactive).

Question: For `CC(C)c1ccc(/C=C2\SC(=S)N(CCC(=O)NCCCn3ccnc3)C2=O)cc1`, which IC50 is on record?
Answer: Its IC50 is 2.64 µM.

Question: For `Fc1ccc(C2=Nn3c(nnc3-c3n[nH]c4c3CCC4)SC2)cc1`, which IC50 is on record?
Answer: Its IC50 is > 80 µM (inactive).

Question: How did the IC50 turn out when `CCOC(=O)Cc1csc(NC(=S)NC(=O)c2ccc(C)cc2)n1` was run?
Answer: The IC50 was 0.72 µM.

Question: How did the IC50 turn out when `COc1ccccc1/C=C1/SC(=S)N(CCC(=O)Nc2cccnc2)C1=O` was run?
Answer: Its IC50 is > 80 µM (inactive).

Question: How did the IC50 turn out when `CCC(=O)N1c2ccccc2[C@@H](N(C(C)=O)c2ccccc2)C[C@H]1C` was run?
Answer: Its IC50 is 57 µM (inactive).

Question: How did the IC50 turn out when `CCOc1ccc(/C=C2\SC(=S)N(CCC(=O)Nc3ccc(C(=O)O)cc3)C2=O)cc1` was run?
Answer: Its IC50 is > 80 µM (inactive).

Question: `O=C(CCCN1C(=O)/C(=C/c2ccccc2Cl)SC1=S)NNC(=O)c1ccc(Cl)cc1` was tested. Which IC50 did it give?
Answer: Its IC50 is 2.04 µM.

Question: How did the IC50 turn out when `O=C(CCCN1C(=O)S/C(=C\c2ccccc2)C1=O)NNC(=O)c1ccccc1O` was run?
Answer: The IC50 was 1.06 µM.

Question: `CCC(C)(C)c1ccc(OCCCC[n+]2ccccc2)c(C(C)(C)CC)c1` was tested. Which IC50 did it give?
Answer: Its IC50 is 5.79 µM.

Question: Which IC50 does the source give for `CC(=O)c1cn(CCOc2cc(C)ccc2C)c2ccccc12` here?
Answer: The IC50 was > 80 µM (inactive).

Question: Which IC50 does the source give for `CC(=O)c1cccc(S(=O)(=O)Nc2cc(C(F)(F)F)ccc2N2CCOCC2)c1` here?
Answer: Its IC50 is 62.2 µM (inactive).

Question: How did the IC50 turn out when `CNC(=O)CCc1nc(-c2ccc(C(C)(C)C)cc2)no1` was run?
Answer: The IC50 was > 80 µM (inactive).

Question: For `Cc1ccc(NC(=O)C2CCC(CNc3c(N4CCC(C)CC4)c(=O)c3=O)CC2)cc1F` (configuration not stated), which IC50 is on record?
Answer: The IC50 was > 80 µM (inactive).

Question: `Cc1ccc(C(=O)CSc2nnc(COc3cc(C)cc(C)c3)o2)cc1` was tested. Which IC50 did it give?
Answer: The IC50 was > 80 µM (inactive).

Question: With `Cc1ccc(C(=O)CSc2nnc(COc3cccc(C)c3)o2)cc1` as the compound, how does the IC50 read?
Answer: The IC50 was > 80 µM (inactive).
